Experimental data as given in paper PMC12040169 (PLOS Biology, 2025).

Assay: in vitro
Details: human, hela cells, % viability

| SMILES | viability at 28.5 h, 10 µM | viability at 28.5 h, 10 µM (bulk resorufin, single well) |
| --- | --- | --- |
| O=C(O)/C=C\c1cn(-c2ccccc2)nc1-c1cc2ccccc2o1 [CBK265257] | 92.7% | – |
| NC(=O)CN1CC2(CCN(CC(=O)Nc3ccc(F)c(Cl)c3)CC2)c2ccccc21 [CBK126790] | 99.2% | – |
| CCOC(=O)c1ccoc1CN1CCCC1c1ccsc1 (centres unmarked) [CBK304878] | 86.7% | – |
| COCCn1cnnc1CN(C)C(=O)NCc1cc2ccccc2s1 [CBK306911] | 98.6% | – |
| NC1=NN(c2ccccc2)C(=O)C1 [CBK144946] | 97.3% | – |
| CC1CN(S(=O)(=O)c2ccc(NC(=O)C3CC(=O)Nc4cc(F)ccc43)cc2)CC(C)O1 (centres unmarked) [CBK297933] | 91.4% | – |
| COc1cc(C(C)c2cc3c(cc2OCC(=O)O)OCO3)cc(OC)c1OC (centres unmarked) [CBK200109] | 90.5% | – |
| CC(C)(C)c1ccc(-c2nnc(SCC(=O)c3ccc(F)cc3)o2)cc1 [CBK067988] | 102% | – |
| O=C(O)CCCn1c(=O)c2cc3c(=O)n(CCCC(=O)O)c(=O)c3cc2c1=O [CBK265748] | 93.1% | – |
| Cc1ccc(C)c(NC(CC(=O)c2ccccc2)C(=O)O)c1 (centres unmarked) [CBK265485] | 102% | – |
| Cn1cncc1C(=O)NC1CCCC1 [CBK200256] | 95.5% | – |
| COC(=O)CCc1ccc(S(=O)(=O)N2CCCN(Cc3cccc4c3OCO4)CC2)cc1 [CBK062993] | 88.8% | – |
| COc1cc(/C=C2/SC(=N)NC2=O)ccc1OCc1ccccc1[N+](=O)[O-] [CBK262181] | 85.4% | – |
| O=C(c1nccs1)C1CCN(C(=O)c2cccs2)CC1 [CBK284159] | 106% | – |
| Cc1n[nH]c(C)c1CC(=O)NC(Cc1cccs1)c1ccccn1 (centres unmarked) [CBK285208] | 111% | – |
| Cc1ccc(C(O)CN2CCC(O)(c3ccccc3F)CC2)cc1 (centres unmarked) [CBK283310] | 93.8% | – |
| COc1ccc(C(=O)Nc2cccc3nsnc23)cc1OC [CBK260973] | 92.2% | – |
| Cc1csc2c(C3CCN(C(=O)C4CC4)CC3)nc(C)n12 [CBK285241] | 88.8% | – |
| O=C(CN(c1ccccc1)S(=O)(=O)c1ccccc1[N+](=O)[O-])Nc1ccc(I)cc1 [CBK263755] | 58.3% | – |
| CCN(CC)CCN1CCN(c2cc(-c3ccc(OC(F)(F)F)cc3)ncn2)CC1 [CBK037756] | 96.3% | – |
| CN1CCN(S(=O)(=O)c2ccccc2Br)CC1 [CBK062435] | 93.2% | – |
| CN1Cc2ccccc2-c2ccc(O)cc21 [CBK017804] | 97.2% | – |
| CCN(CC1CCN(c2ccccn2)CC1)C(=O)C1(C#N)CCCC1 [CBK304096] | 98.7% | – |

| SMILES | viability at 28.5 h, 10 µM | viability at 28.5 h, 10 µM (bulk resorufin, single well) |
| --- | --- | --- |
| CC(C)(C)OC(=O)N1CCC[C@H]1C(=O)c1cccnc1 [CBK284280] | 99.3% | – |
| CCc1nc2ccc(C(=O)N3CCC(O)(Cc4ccccc4)CC3)cn2c1N(CC)C(=O)CCC1CCCC1 [CBK146854] | 88.1% | – |
| CCn1c(=O)n(CC(=O)N(C(C)C)C(C)C)c2cccnc21 [CBK283943] | 100% | – |
| CCN(CC)C(=O)CN1CCC(Oc2cncc(OCc3cccnc3)n2)C1 (centres unmarked) [CBK084461] | 92.4% | – |
| COc1ccccc1N1CCN(CCC(=O)Nc2ccc(Br)c(C)c2)CC1 [CBK264218] | 93.6% | – |
| C=CCn1c(COc2cccc(Cl)c2)nnc1SCC(=O)O [CBK269389] | 90.2% | – |
| CN1CCN(C(=O)c2ccc(-c3ccccc3)nc2NCCc2ccccn2)CC1 [CBK076550] | 93.3% | – |
| O=S1(=O)CCC(c2nc(-c3ccc(Br)o3)no2)C1 (centres unmarked) [CBK306134] | 77.8% | – |
| CC(=O)N1CCC(N2C[C@H](O)C[C@H]2c2nc(C3CC3)no2)CC1 [CBK288845] | 93.6% | – |
| CN(C)c1nc2c(ncn2C2OC(CO)C(O)C2O)c(=O)[nH]1 (centres unmarked) [CBK201295] | 96.3% | – |
| CCn1c2ccccc2c2cc(CN(C)Cc3ccccc3)ccc21 [CBK261901] | 94.1% | – |
| O=C(O)c1ccc(CSc2nnc(Cc3ccccc3)[nH]2)o1 [CBK269208] | 99.3% | – |
| O=C(NC1CC1)[C@H]1O[C@H](CCN2CCN(c3ccccc3)CC2)CC[C@@H]1O [CBK288717] | 96.8% | – |
| O=C(O)COc1cccc(NC(=O)c2ccccc2)c1 [CBK264602] | 88.3% | – |
| COc1ccccc1-c1ccc(C(=O)N(C)CCN(C)C)c(N(C)C)n1 [CBK106075] | 88.5% | – |
| CCOC(=O)C(C)N1C(=O)S/C(=C/c2cc(C)n(-c3ccncc3)c2C)C1=O (centres unmarked) [CBK265145] | 99.9% | – |
| O=S1(=O)CCN(Cc2cnn(-c3ccc(OC(F)(F)F)cc3)n2)CC1 [CBK112883] | 95.3% | – |
| O=C(NCc1ccc(Cl)c(Cl)c1)c1cnoc1-c1ccccc1Cl [CBK154942] | 98.4% | – |
| COCCNC(=O)c1ccc(-c2ccccc2OC)nc1NCC1CC1 [CBK106246] | 103% | – |
| COc1ccc(Cn2nc(N)c3ccccc32)cc1 [CBK093530] | 93.3% | – |
| CN(Cc1cnn(C)c1)C(=O)C1CCCN1Cc1ccccn1 (centres unmarked) [CBK305092] | 96% | – |
| CN(C)c1ccc(CCNS(=O)(=O)c2ccc3[nH]c(=O)[nH]c(=O)c3c2)cc1 [CBK285938] | 84.8% | – |
| COc1cccc(-c2nccc3ccn(CC(=O)N4CC=CCC4)c23)c1 [CBK284806] | 104% | – |

| SMILES | viability at 28.5 h, 10 µM | viability at 28.5 h, 10 µM (bulk resorufin, single well) |
| --- | --- | --- |
| CC(=O)N1C[C@H](c2cccc(C)c2)[C@H]2CN(C3CCCC3)CC[C@H]21 [CBK283369] | 88.7% | – |
| C=CCNC(=O)N[C@H]1CCN2C(=O)c3ccc(Cl)cc3NC(=O)[C@@H]2C1 [CBK289569] | 95.9% | – |
| Oc1ccc(/N=C/C=C/c2ccc(Cl)cc2Cl)cc1-c1nc2ccccc2s1 [CBK261242] | 107% | – |
| CC(Oc1ccc(Cl)cc1Cl)C(=O)Nc1sc2c(c1C(N)=O)CCCCCC2 (centres unmarked) [CBK265394] | 85.8% | – |
| Cc1ccc(CS(=O)(=O)NCc2ccccc2-n2ccnc2)cc1 [CBK281462] | 96.5% | – |
| COc1cc2c(cc1OC)CN(C(=O)C1CCN(C)CC1)CC2 [CBK122744] | 93.2% | – |
| CC(=O)NC1=NC(=O)CN1C [CBK020181] | 107% | – |
| CC(CNC(=O)c1cncc(Br)c1)NC(=O)c1cncc(Br)c1 (centres unmarked) [CBK262040] | 91.6% | – |
| CC(=O)Nc1cccc(NC(=O)CCCC(=O)O)c1 [CBK261598] | 97.9% | – |
| S=c1[nH]nc(Cc2cccc3ccccc23)n1-c1ccccc1 [CBK265052] | 97.3% | – |
| Cn1ncc2c(=O)[nH]c(N3CCN(c4cc(C#N)ccn4)CC3)nc21 [CBK304924] | 92.4% | – |
| CC(Oc1ccc2c(c1)OCO2)C(=O)NNC(=O)Nc1cccc(Cl)c1Cl (centres unmarked) [CBK266852] | 86.5% | – |
| CNCC(=O)N1CCN(C(=O)c2ccc(Cl)cc2Cl)CC1 [CBK029576] | 99.9% | – |
| Cc1ccsc1CN1CCCCC1CO (centres unmarked) [CBK026348] | 107% | – |
| CCn1ncc(CN2C3CCC2CC(O)(c2cccc(F)c2)C3)c1C (centres unmarked) [CBK282754] | 91.6% | – |
| N#CC1(c2ccccc2)CCN(C(=O)COc2ccc(F)cc2)CC1 [CBK091387] | – | 92.6% |
| COc1ccc(C)cc1CC(=O)N1CCc2c(sc3ncnc(N)c23)C1 [CBK305878] | 83.4% | – |
| N#Cc1cccnc1N1CC2COCCC2(C(=O)N2CCC=C(F)C2)C1 (centres unmarked) [CBK304744] | 91.5% | – |
| Cc1ccc(-c2ccnc3[nH]c(=O)[nH]c(=O)c23)cc1 [CBK287978] | 89.7% | – |
| O=C(NC1Cc2ccccc2C1)c1cccc(-c2ccc(CC3CCCNC3=O)cc2)c1 (centres unmarked) [CBK285579] | 94.9% | – |
| Cc1ccc(C(=O)N2CCN(c3ccc(NC(=O)c4ccc(-c5cccc([N+](=O)[O-])c5)o4)cc3)CC2)cc1 [CBK266355] | 107% | – |
| COc1ccccc1CC(=O)N1CCCC1c1nc2ccccc2[nH]1 (centres unmarked) [CBK285517] | 94.6% | – |
| Cc1oc(C2CC2)cc1C(=O)N1CCC(c2ccncc2)CC1 [CBK283514] | 95.2% | – |

| SMILES | viability at 28.5 h, 10 µM | viability at 28.5 h, 10 µM (bulk resorufin, single well) |
| --- | --- | --- |
| Cc1ccc(S(=O)(=O)NC2CCC(C(=O)O)CC2)cc1 (centres unmarked) [CBK286929] | 96.4% | – |
| Clc1nc2ccccc2nc1N1CCCC1 [CBK083596] | 101% | – |
| Cc1ccc(C)n1-c1ccc(C(=O)OCC(=O)c2cccc([N+](=O)[O-])c2)cc1 [CBK264427] | 97.8% | – |
| Cc1c(CN(C)CC2CCN(C)C2)cnn1Cc1ccccc1 (centres unmarked) [CBK282616] | 105% | – |
| O=C(C1COc2ccccc2O1)N(Cc1cccnc1)c1nc2c(F)cccc2s1 (centres unmarked) [CBK294421] | 91% | – |
| c1ccc(CN2CCC(N3CCC(N4CCc5ccccc5C4)CC3)CC2)cc1 [CBK264730G] | 91% | – |
| O=C(c1ccc(F)cc1)N1CCN(c2ccccn2)CC1 [CBK287795] | 104% | – |
| CC(C)c1nnc(CCC(=O)N2CCC(c3ccccc3)C2)o1 (centres unmarked) [CBK281925] | 89.3% | – |
| O=S(=O)(O)c1cc(S(=O)(=O)O)c2cc(O)c(S(=O)(=O)O)cc2c1 [CBK278319N] | 96.7% | – |
| CCOC(=O)CN1CCN(S(=O)(=O)c2ccc3ccccc3c2)CC1 [CBK043738] | 93.4% | – |
| CC1(C)CC(=O)c2sc(NC(=O)c3cncnc3)nc2C1 [CBK144107] | 101% | – |
| CC(O)CNCCNCc1cccs1 (centres unmarked) [CBK278279C] | 109% | – |
| c1cc(-c2nnc3n2CCCCS3)ccn1 [CBK288543] | 99.3% | – |
| CC(C)c1cc(C(=O)N[C@@H]2CCOC[C@H]2Oc2ccc(CO)cc2)on1 [CBK306554] | 101% | – |
| O=C(Nc1ccccc1)N1Cc2nc[nH]c2C[C@H]1c1nc(-c2ccccc2)no1 [CBK288997] | 84.3% | – |
| O=C(Nc1nc2c(s1)CCCCC2)C1CN(C(=O)Cc2ccc(F)cc2)C1 [CBK285904] | 87.2% | – |
| Cc1ccc(S(=O)(=O)N/C(=N/C(C)C(=O)O)c2ccccc2)cc1 (centres unmarked) [CBK263099] | 92.2% | – |
| COCCN(C)C(=O)c1cn2cc(-c3cc(C)oc3C)n(C)c(=O)c2n1 [CBK306605] | 80.5% | – |
| O=C(CCSc1ccc(Cl)cc1)NCCc1ccccc1 [CBK263800] | 86.4% | – |
| COc1ccc(-c2cc(C(=O)Nc3ccc(CCO)cc3)cnc2-c2cccc(C)c2)cn1 [CBK037461] | 91.8% | – |
